{"source": "paper PMC7611149", "about": "(ACS chemical biology, 2018)", "key": {"CpOGA": {"molecular_target": "CpOGA (Clostridium perfringens, UniProt Q0TR53)", "sequence (Q0TR53 31-1001 limits assumed)": "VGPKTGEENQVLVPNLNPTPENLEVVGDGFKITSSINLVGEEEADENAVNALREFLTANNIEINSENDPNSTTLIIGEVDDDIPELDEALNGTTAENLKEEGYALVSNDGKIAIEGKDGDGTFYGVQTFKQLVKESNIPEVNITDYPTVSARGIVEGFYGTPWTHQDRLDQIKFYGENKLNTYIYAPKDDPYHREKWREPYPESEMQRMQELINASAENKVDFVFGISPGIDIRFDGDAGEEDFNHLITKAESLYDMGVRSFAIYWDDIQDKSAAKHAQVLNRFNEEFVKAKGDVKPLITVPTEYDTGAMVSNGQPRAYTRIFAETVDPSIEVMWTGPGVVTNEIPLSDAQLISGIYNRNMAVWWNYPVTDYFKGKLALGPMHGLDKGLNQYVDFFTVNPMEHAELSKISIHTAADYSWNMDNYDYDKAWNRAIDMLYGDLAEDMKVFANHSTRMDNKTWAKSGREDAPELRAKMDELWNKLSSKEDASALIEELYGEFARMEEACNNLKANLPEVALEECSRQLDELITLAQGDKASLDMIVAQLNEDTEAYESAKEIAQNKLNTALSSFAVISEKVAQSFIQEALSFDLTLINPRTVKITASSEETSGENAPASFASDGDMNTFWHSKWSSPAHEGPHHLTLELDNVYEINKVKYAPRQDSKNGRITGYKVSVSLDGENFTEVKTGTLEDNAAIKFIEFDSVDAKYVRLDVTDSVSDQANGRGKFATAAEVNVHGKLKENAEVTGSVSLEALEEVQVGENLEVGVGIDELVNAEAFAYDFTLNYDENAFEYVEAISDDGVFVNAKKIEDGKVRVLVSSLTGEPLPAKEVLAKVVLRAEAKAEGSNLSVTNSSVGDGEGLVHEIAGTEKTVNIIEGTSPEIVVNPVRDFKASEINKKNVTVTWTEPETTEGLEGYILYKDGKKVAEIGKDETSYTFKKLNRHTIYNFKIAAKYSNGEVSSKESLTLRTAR", "experiment": "biochemical", "type": "binding"}, "human OGA (hOGA)": {"molecular_target": "T1, human OGA (hOGA) (Homo sapiens, UniProt O60502)", "T1 sequence (O60502 60-336 limits assumed)": "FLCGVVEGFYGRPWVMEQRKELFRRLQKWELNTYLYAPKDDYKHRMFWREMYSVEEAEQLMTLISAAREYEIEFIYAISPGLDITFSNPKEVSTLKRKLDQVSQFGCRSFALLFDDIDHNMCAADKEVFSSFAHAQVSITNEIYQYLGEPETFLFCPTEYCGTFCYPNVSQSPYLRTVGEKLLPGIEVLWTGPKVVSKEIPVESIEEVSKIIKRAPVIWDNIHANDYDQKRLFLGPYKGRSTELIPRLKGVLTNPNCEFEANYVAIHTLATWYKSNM", "experiment": "Fluorescence polarization displacement of GlcNAcstatin BF from hOGA", "type": "binding", "settings": "FP displacement, 50 nM GlcNAcstatin BF, 250 nM hOGA, TBS pH 7.5"}}}
{"compound": "FC(F)(F)C1=NCCNC=C1", "note": "[5TFD, 5-(trifluoromethyl)-2,3-dihydro-1H-1,4-diazepine]", "values": [{"measurement": "Ki", "setting": "CpOGA", "value": 146, "unit": "µM"}]}
{"compound": "CC(=O)N[C@H]1c2nc(CCc3ccccc3)cn2[C@H](CO)[C@@H](O)[C@@H]1O", "note": "[GlcNAcstatin B]", "values": [{"measurement": "Ki", "setting": "human OGA (hOGA)", "value": 0.0232, "unit": "µM"}]}
